Assay results published in patent publication US20250324971A1, “HERBICIDAL DERIVATIVES” (SYNGENTA CROP PROTECTION AG, priority 2022, published 2025).

Columns and labels:
Type in all cases: in vivo
Setaria faberi (SETFA) [1] = assay: Pre-Emergence Test (herbicidal, glasshouse pots); details: rate 250 g/ha, evaluated after 13 days, five-point scale
[2] = system: Ipomoea hederacea (IPOHE); assay: Pre-Emergence Test (herbicidal, glasshouse pots); details: rate 250 g/ha, evaluated after 13 days, five-point scale
[3] = system: Echinochloa crus-galli (ECHCG); assay: Pre-Emergence Test (herbicidal, glasshouse pots); details: rate 250 g/ha, evaluated after 13 days, five-point scale
[4] = system: Amaranthus retoflexus (AMARE); assay: Pre-Emergence Test (herbicidal, glasshouse pots); details: rate 250 g/ha, evaluated after 13 days, five-point scale
Zea mays (ZEAMX) [5] = assay: Pre-Emergence Test (herbicidal, glasshouse pots); details: rate 250 g/ha, evaluated after 13 days, five-point scale
[6] = system: Amaranthus palmeri (AMAPA); assay: Pre-Emergence Test (herbicidal, glasshouse pots); details: rate 250 g/ha, evaluated after 13 days, five-point scale
[7] = system: Amaranthus palmeri (AMAPA); assay: Post-Emergence Test (herbicidal, glasshouse pots); details: rate 250 g/ha; evaluated after 13 days
Outline: (§1)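 Pots in glasshouse (24/16 °C, 14 h light, 65% RH), sprayed with a.i. in acetone/water 50:50 + 0.5% Tween 20; rate in g/ha. Watered twice daily; % damage read at 13 d, scored 5=81-100%, 4=61-80%, 3=41-60%, 2=21-40%, 1=0-20%.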

[8] = system: Amaranthus retoflexus (AMARE); assay: Post-Emergence Test (herbicidal, glasshouse pots); details: rate 250 g/ha; evaluated after 13 days
Outline: as §1

[9] = system: Echinochloa crus-galli (ECHCG); assay: Post-Emergence Test (herbicidal, glasshouse pots); details: rate 250 g/ha; evaluated after 13 days
Outline: as §1

[10] = system: Ipomoea hederacea (IPOHE); assay: Post-Emergence Test (herbicidal, glasshouse pots); details: rate 250 g/ha; evaluated after 13 days
Outline: as §1

Setaria faberi (SETFA) [11] = assay: Post-Emergence Test (herbicidal, glasshouse pots); details: rate 250 g/ha; evaluated after 13 days
Outline: as §1

Zea mays (ZEAMX) [12] = assay: Post-Emergence Test (herbicidal, glasshouse pots); details: rate 250 g/ha; evaluated after 13 days
Outline: as §1

SMILES: CCc1cc(Oc2cc(=O)c(C(=O)O)c(-c3ccc(Cl)c(Cl)c3)n2CC)no1 [Compound 39, 2-(3,4-dichlorophenyl)-1-ethyl-6-(5-ethylisoxazol-3-yl)oxy-4-oxo-pyridine-3-carboxylic acid]
- percentage damage caused to the plant, SETFA (Setaria faberi (SETFA) [1]): 1 (1=0-20%)
- percentage damage caused to the plant, IPHOE [2]: 1 (1=0-20%)
- percentage damage caused to the plant, ECHCG [3]: 1 (1=0-20%)
- percentage damage caused to the plant, AMARE [4]: 1 (1=0-20%)
- percentage damage caused to the plant, ZEAMX (Zea mays (ZEAMX) [5]): 0
- percentage damage caused to the plant, AMAPA [6]: 1 (1=0-20%)
- Post-Emergence Test AMAPA percentage damage (five-point scale) [7]: 1 (1=0-20%)
- Post-Emergence Test AMARE percentage damage (five-point scale) [8]: 1 (1=0-20%)
- Post-Emergence Test ECHCG percentage damage (five-point scale) [9]: 1 (1=0-20%)
- Post-Emergence Test IPHOE percentage damage (five-point scale) [10]: 2 (2=21-40%)
- Post-Emergence Test SETFA percentage damage (five-point scale) (Setaria faberi (SETFA) [11]): 1 (1=0-20%)
- Post-Emergence Test ZEAMX percentage damage (five-point scale) (Zea mays (ZEAMX) [12]): 0

SMILES: CCn1c(Oc2cc(C3CC3)on2)cc(=O)c(C(=O)O)c1-c1ccc(Cl)c(Cl)c1 [Compound 55, 6-(5-cyclopropylisoxazol-3-yl)oxy-2-(3,4-dichlorophenyl)-1-ethyl-4-oxo-pyridine-3-carboxylic acid]
- percentage damage caused to the plant, SETFA (Setaria faberi (SETFA) [1]): 1 (1=0-20%)
- percentage damage caused to the plant, IPHOE [2]: 0
- percentage damage caused to the plant, ECHCG [3]: 1 (1=0-20%)
- percentage damage caused to the plant, AMARE [4]: 1 (1=0-20%)
- percentage damage caused to the plant, ZEAMX (Zea mays (ZEAMX) [5]): 0
- percentage damage caused to the plant, AMAPA [6]: 0
- Post-Emergence Test AMAPA percentage damage (five-point scale) [7]: 4 (4=61-80%)
- Post-Emergence Test AMARE percentage damage (five-point scale) [8]: 4 (4=61-80%)
- Post-Emergence Test ECHCG percentage damage (five-point scale) [9]: 2 (2=21-40%)
- Post-Emergence Test IPHOE percentage damage (five-point scale) [10]: 3 (3=41-60%)
- Post-Emergence Test SETFA percentage damage (five-point scale) (Setaria faberi (SETFA) [11]): 2 (2=21-40%)
- Post-Emergence Test ZEAMX percentage damage (five-point scale) (Zea mays (ZEAMX) [12]): 2 (2=21-40%)

SMILES: CCn1c(Oc2ccc(C)cc2)cc(=O)c(C(=O)O)c1-c1ccc(Cl)c(Cl)c1 [Compound 53, 2-(3,4-dichlorophenyl)-1-ethyl-6-(4-methylphenoxy)-4-oxo-pyridine-3-carboxylic acid]
- percentage damage caused to the plant, SETFA (Setaria faberi (SETFA) [1]): 1 (1=0-20%)
- percentage damage caused to the plant, IPHOE [2]: 1 (1=0-20%)
- percentage damage caused to the plant, ECHCG [3]: 0
- percentage damage caused to the plant, AMARE [4]: 2 (2=21-40%)
- percentage damage caused to the plant, ZEAMX (Zea mays (ZEAMX) [5]): 0
- percentage damage caused to the plant, AMAPA [6]: 0
- Post-Emergence Test AMAPA percentage damage (five-point scale) [7]: 4 (4=61-80%)
- Post-Emergence Test AMARE percentage damage (five-point scale) [8]: 3 (3=41-60%)
- Post-Emergence Test ECHCG percentage damage (five-point scale) [9]: 0
- Post-Emergence Test IPHOE percentage damage (five-point scale) [10]: 4 (4=61-80%)
- Post-Emergence Test SETFA percentage damage (five-point scale) (Setaria faberi (SETFA) [11]): 1 (1=0-20%)
- Post-Emergence Test ZEAMX percentage damage (five-point scale) (Zea mays (ZEAMX) [12]): 1 (1=0-20%)

SMILES: CCn1c(Oc2ccc(Cl)cn2)cc(=O)c(C(=O)O)c1-c1ccc(Cl)c(Cl)c1 [Compound 38, 6-[(5-chloro-2-pyridyl)oxy]-2-(3,4-dichlorophenyl)-1-ethyl-4-oxo-pyridine-3-carboxylic acid]
- percentage damage caused to the plant, SETFA (Setaria faberi (SETFA) [1]): 5 (5=81-100%)
- percentage damage caused to the plant, IPHOE [2]: 4 (4=61-80%)
- percentage damage caused to the plant, ECHCG [3]: 5 (5=81-100%)
- percentage damage caused to the plant, AMARE [4]: 3 (3=41-60%)
- percentage damage caused to the plant, ZEAMX (Zea mays (ZEAMX) [5]): 4 (4=61-80%)
- percentage damage caused to the plant, AMAPA [6]: 2 (2=21-40%)
- Post-Emergence Test AMAPA percentage damage (five-point scale) [7]: 4 (4=61-80%)
- Post-Emergence Test AMARE percentage damage (five-point scale) [8]: 4 (4=61-80%)
- Post-Emergence Test ECHCG percentage damage (five-point scale) [9]: 3 (3=41-60%)
- Post-Emergence Test IPHOE percentage damage (five-point scale) [10]: 4 (4=61-80%)
- Post-Emergence Test SETFA percentage damage (five-point scale) (Setaria faberi (SETFA) [11]): 4 (4=61-80%)
- Post-Emergence Test ZEAMX percentage damage (five-point scale) (Zea mays (ZEAMX) [12]): 4 (4=61-80%)

SMILES: CCn1c(Oc2ccn(C3CC3)n2)cc(=O)c(C(=O)O)c1-c1ccc(Cl)c(Cl)c1 [Compound 58, 6-(1-cyclopropylpyrazol-3-yl)oxy-2-(3,4-dichlorophenyl)-1-ethyl-4-oxo-pyridine-3-carboxylic acid]
- percentage damage caused to the plant, SETFA (Setaria faberi (SETFA) [1]): 5 (5=81-100%)
- percentage damage caused to the plant, IPHOE [2]: 5 (5=81-100%)
- percentage damage caused to the plant, ECHCG [3]: 5 (5=81-100%)
- percentage damage caused to the plant, AMARE [4]: 4 (4=61-80%)
- percentage damage caused to the plant, ZEAMX (Zea mays (ZEAMX) [5]): 5 (5=81-100%)
- percentage damage caused to the plant, AMAPA [6]: 3 (3=41-60%)
- Post-Emergence Test AMAPA percentage damage (five-point scale) [7]: 3 (3=41-60%)
- Post-Emergence Test AMARE percentage damage (five-point scale) [8]: 4 (4=61-80%)
- Post-Emergence Test ECHCG percentage damage (five-point scale) [9]: 3 (3=41-60%)
- Post-Emergence Test IPHOE percentage damage (five-point scale) [10]: 4 (4=61-80%)
- Post-Emergence Test SETFA percentage damage (five-point scale) (Setaria faberi (SETFA) [11]): 3 (3=41-60%)
- Post-Emergence Test ZEAMX percentage damage (five-point scale) (Zea mays (ZEAMX) [12]): 4 (4=61-80%)
